Entries after “also recorded” stand apart in the source; their conditions may differ.
What was measured:
[1] = tested on: insulin-induced p-AKT in the ARC; experiment: Intranasal PZ6005 in obese mice: insulin-induced p-AKT immunohistochemistry in the ARC; format: in vivo, mouse; conditions: both doses I.N. (1 or 5 mg/animal/day), 14 days, after I.P. insulin
Procedure: Conscious mice were restrained by scruffing and inverted parallel to the floor with the chin at ˜180-degree angle with the neck. Using a 10 μL tip, a pipettor was loaded with 5 μl of vehicle (ddH2O) or fluorosamine (1 mg/animal in 20 μl or 5 mg/animal in 20 μl). The tip of the filled pipettor was placed near the left nostril at a 45-degree angle, and the drug was ejected to form a small 5 μl droplet at tip for the mouse to inhale. Immediately after the mouse inhaled the first droplet the remaining solution was ejected to form another small droplet for the mouse to inhale through the same nostril. The mouse was held in this position for 15 seconds before the procedure was repeated in the right nostril. The mouse was returned to the cage for 2 minutes and the process was repeated so that each mouse received four droplets of 5 μl each, delivering a total of 20 μl of solution. All drugs were administered delivered approximately 1 h before lights off […].

CSPG-ECM = experiment: I.C.V. fluorosamine in obese mice: WFA immunostaining of CSPG-ECM in brain areas; format: in vivo, mouse
Procedure: For detection of aggrecan, GFP, HABP, parvalbumin, mCherry, versican, tenascin-C, HAPLN1, neurocan, phosphacan, brevican, WFA and WFA-FITC sections were incubated at room temperature for 1 h in blocking buffer (0.3% Triton X-100, 5% normal goat serum, Gibco, ThermoFisher, MA, 0.02% sodium azide) and then overnight at 4° C. in 1% blocking buffer containing either rabbit anti-aggrecan (1:1000, AB1031, Millipore, MA), chicken anti-GFP (1:2000; ab13970, Abcam, Cambridge, UK), Biotinylated HABP (1:100, 385911, Burlington, MA), sheep anti-parvalbumin (1:1000), in house), rabbit anti-dsRed (1:2000, 600-401-379, Rockland, PA), rabbit anti-versican (1:1000, AB1033, Millipore, MA), tenascin-C (1:500, M1-B4, Developmental Studies Hybridoma Bank, Iowa), HAPLN1 (1:500, 9/30/8-A-4, Developmental Studies Hybridoma Bank, Iowa), neurocan (1:300, 1F6-S, Developmental Studies Hybridoma Bank, Iowa), phophacan (1:300, 3F8, Developmental Studies Hybridoma Bank, Iowa), brevican (1:500, 610895, BD Transduction Laboratories), biotinylated WFA (1:2000, L1516; Sigma-Aldrich, MO), WFA-FITC (1:2000, FL-1351-2, Vector Laboratories, CA), rabbit anti PGP9.5 (1:1000, 14730-1-AP, Proteintech, IL), guinea pig anti AgRP (1:500, AS506, Antibodies Australia, Melbourne, AUS). […]
All image quantification was performed in Image J (NIH) software (NIH, MA). […] To quantify area and intensity of the CSPG-ECM within each brain region (ARC, VMH or RSG cortex) images were thresholded and binarized to create a region of interest (ROI) mask of only the CSPG-ECM. For each brain area, CSPG-ECM ROI area (μm^2) and intensity (sum of all pixel intensities within the ROI) was calculated. […]

## CC(=O)NC1C(OC(C)=O)OC(COC(C)=O)[C@@H](F)C1OC(C)=O (stereo partly shown) [fluorosamine, per-O-acetylated-4-F-N-acetylglucosamine]
[1]
  ARC pAKT +ve. cells (insulin receptor signalling): robust increase
CSPG-ECM; I.C.V. daily for 10 days
  CSPG-ECM in other brain areas such as the RSG cortex: did not reduce CSPG-ECM
  neurofibrosis (CSPG-ECM, WFA immunostaining) within the ARC: significantly attenuated neurofibrosis within the ARC; also recorded: preferentially attenuates CSPG-ECM in the ARC
CSPG-ECM; I.C.V., highest dose
  CSPG-ECM expression in the habenula: only partially attenuated expression

— patent US20260174677A1, “METHODS OF TREATING INSULIN RESISTANCE AND ASSOCIATED DISORDERS” (The University of Melboune, priority 2022, published 2026)
